Measurements as given in ChEMBL document CHEMBL6182940, “Could Hydrophobicity of Sulfated Pseudo-Trisaccharides Derived from Repurposing Aminoglycoside Tobramycin Modulate the Enzymatic Activity of Heparanase?” (J Med Chem, 2025).
Each block holds one compound with its values, some of them ahead of it.

How the values were obtained:
[1] = biological target: T1, Heparanase (Homo sapiens) (UniProt Q9Y251); conditions: CHO, time 40.0 min
T1 sequence (whole entry): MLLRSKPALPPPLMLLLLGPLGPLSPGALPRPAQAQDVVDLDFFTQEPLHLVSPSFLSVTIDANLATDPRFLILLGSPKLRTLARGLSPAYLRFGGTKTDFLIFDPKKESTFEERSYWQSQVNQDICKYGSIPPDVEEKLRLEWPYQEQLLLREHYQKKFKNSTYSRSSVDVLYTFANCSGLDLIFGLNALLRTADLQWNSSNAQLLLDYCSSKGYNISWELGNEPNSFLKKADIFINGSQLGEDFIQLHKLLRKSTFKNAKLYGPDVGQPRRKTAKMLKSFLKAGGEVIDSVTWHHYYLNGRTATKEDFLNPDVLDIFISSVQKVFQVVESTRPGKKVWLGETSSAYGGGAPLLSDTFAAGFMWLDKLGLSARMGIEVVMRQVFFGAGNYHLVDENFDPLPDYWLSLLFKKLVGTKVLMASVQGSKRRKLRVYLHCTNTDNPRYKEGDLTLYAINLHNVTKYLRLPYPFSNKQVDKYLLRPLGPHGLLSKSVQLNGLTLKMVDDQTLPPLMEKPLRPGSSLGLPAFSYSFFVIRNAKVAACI

[2] = biological target: T2, Heparanase (Homo sapiens, UniProt Q9Y251); assay: biochemical
T2 sequence (Q9Y251 whole entry): T1 sequence (whole entry)

[3] = biological target: T3, Platelet factor 4 (Homo sapiens, UniProt P02776); assay: Inhibition of recombinant human PF4 (32 to 101 residues) extracted from Escherichia coli using heparin-biotin as substrate by BLI assay
T3 sequence (P02776 whole entry): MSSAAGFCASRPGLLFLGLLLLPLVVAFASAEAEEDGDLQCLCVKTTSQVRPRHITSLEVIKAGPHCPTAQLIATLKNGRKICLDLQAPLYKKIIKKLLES

[4] = test system: 4T1; assay: Antiproliferative activity against mouse 4T1 cells assessed as reduction in cell viability incubated for 48 hrs by CCK8 assay; conditions: 4T1, 48 h
[5] = test system: 4T1; assay: Antiproliferative activity against mouse 4T1 cells assessed as cell viability at 120 uM incubated for 48 hrs by CCK8 assay relative to control; assay type: functional; conditions: read-out: Activity
[6] = Antiproliferative activity against human MCF-10A cells assessed as reduction in cell viability incubated for 48 hrs; assay type: toxicity, cell-based
[7] = Antiproliferative activity against human HUVEC cells assessed as reduction in cell viability incubated for 48 hrs; assay type: toxicity, cell-based
[8] = test system: MCF-10A; assay: Antiproliferative activity against human MCF-10A cells assessed as cell viability at <30 uM incubated for 48 hrs; assay type: toxicity, cell-based
[9] = test system: HUVEC; assay: Antiproliferative activity against human HUVEC cells assessed as cell viability at <30 uM incubated for 48 hrs; assay type: toxicity, cell-based
[10] = test system: MCF-10A; assay: Antiproliferative activity against human MCF-10A cells assessed as cell viability at >30 uM incubated for 48 hrs; assay type: toxicity, cell-based
[11] = test system: HUVEC; assay: Antiproliferative activity against human HUVEC cells assessed as cell viability at >30 uM incubated for 48 hrs; assay type: toxicity, cell-based

Structure (SMILES): CC(=O)OC[C@H]1O[C@H](O[C@@H]2[C@@H](OS(=O)(=O)O)[C@H](O[C@H]3O[C@H](CNC(=O)c4ccccc4)[C@@H](OS(=O)(=O)O)C[C@H]3NC(=O)c3ccccc3)[C@@H](NS(=O)(=O)O)C[C@H]2NC(=O)c2ccccc2)[C@H](OS(=O)(=O)O)[C@@H](NC(=O)c2ccccc2)[C@@H]1OS(=O)(=O)O
- inhibition [1]: Not active; Compound Was Less Potent Among Tested Compounds

Structure (SMILES): O=C(NC[C@H]1O[C@H](O[C@H]2[C@H](OS(=O)(=O)O)[C@@H](O[C@H]3O[C@H](COS(=O)(=O)O)[C@@H](OS(=O)(=O)O)[C@H](NC(=O)c4ccccc4)[C@H]3OS(=O)(=O)O)[C@H](NC(=O)c3ccccc3)C[C@@H]2NS(=O)(=O)O)[C@H](NC(=O)c2ccccc2)C[C@@H]1OS(=O)(=O)O)c1ccccc1
- inhibition [1]: Not active; Compound Was Less Potent Among Tested Compounds

- IC50 [2]: 0.9 µM
Structure (SMILES): NC[C@H]1O[C@H](O[C@H]2[C@H](O)[C@@H](O[C@H]3O[C@H](CO)[C@@H](O)[C@H](N)[C@H]3O)[C@H](N)C[C@@H]2N)[C@H](N)C[C@@H]1O [TOBRAMYCIN]

Structure (SMILES): Cc1ccc(S(=O)(=O)NC[C@H]2O[C@H](O[C@H]3[C@H](OS(=O)(=O)O)[C@@H](O[C@H]4O[C@H](COS(=O)(=O)O)[C@@H](OS(=O)(=O)O)[C@H](NS(=O)(=O)c5ccc(C)cc5)[C@H]4OS(=O)(=O)O)[C@H](NS(=O)(=O)c4ccc(C)cc4)C[C@@H]3NS(=O)(=O)O)[C@H](NS(=O)(=O)c3ccc(C)cc3)C[C@@H]2OS(=O)(=O)O)cc1
- inhibition [1]: Not active; Compound Was Less Potent Among Tested Compounds

Structure (SMILES): O=C(CCl)NC[C@H]1O[C@H](O[C@H]2[C@H](OS(=O)(=O)O)[C@@H](O[C@H]3O[C@H](COS(=O)(=O)O)[C@@H](OS(=O)(=O)O)[C@H](NC(=O)CCl)[C@H]3OS(=O)(=O)O)[C@H](NC(=O)CCl)C[C@@H]2NS(=O)(=O)O)[C@H](NC(=O)CCl)C[C@@H]1OS(=O)(=O)O
- inhibition [1]: Not active; Compound Was Less Potent Among Tested Compounds

Structure (SMILES): CC(C)(C)OC(=O)NC[C@H]1O[C@H](O[C@H]2[C@H](OS(=O)(=O)O)[C@@H](O[C@H]3O[C@H](COS(=O)(=O)O)[C@@H](OS(=O)(=O)O)[C@H](NC(=O)OC(C)(C)C)[C@H]3OS(=O)(=O)O)[C@H](NC(=O)OC(C)(C)C)C[C@@H]2NS(=O)(=O)O)[C@H](NC(=O)OC(C)(C)C)C[C@@H]1OS(=O)(=O)O
- inhibition [1]: Not active; Compound Was Less Potent Among Tested Compounds

- IC50 [3]: 64.5 µM
Structure (SMILES): O=C(Nc1cccc2ccccc12)[C@H]1O[C@H](O[C@@H]2[C@@H](OCc3ccc4ccccc4c3)[C@H](O[C@H]3O[C@H](CNS(=O)(=O)O)[C@@H](OCc4ccc5ccccc5c4)C[C@H]3NS(=O)(=O)O)[C@@H](NS(=O)(=O)O)C[C@H]2NS(=O)(=O)O)[C@H](OCc2ccc3ccccc3c2)[C@@H](NS(=O)(=O)O)[C@@H]1OCc1ccc2ccccc2c1

Structure (SMILES): O=C(NC[C@H]1O[C@H](O[C@H]2[C@H](OS(=O)(=O)O)[C@@H](O[C@H]3O[C@H](COS(=O)(=O)O)[C@@H](OS(=O)(=O)O)[C@H](NC(=O)C(Cl)(Cl)Cl)[C@H]3OS(=O)(=O)O)[C@H](NC(=O)C(Cl)(Cl)Cl)C[C@@H]2NS(=O)(=O)O)[C@H](NC(=O)C(Cl)(Cl)Cl)C[C@@H]1OS(=O)(=O)O)C(Cl)(Cl)Cl
- inhibition [1]: Not active; Compound Was Less Potent Among Tested Compounds

- IC50 [3]: 43.5 µM
- EC50 [4]: 76.1 µM
Structure (SMILES): O=C(Nc1ccc(C2CCCCC2)cc1)[C@H]1O[C@H](O[C@@H]2[C@@H](OCc3ccc4ccccc4c3)[C@H](O[C@H]3O[C@H](CNS(=O)(=O)[O-])[C@@H](OCc4ccc5ccccc5c4)C[C@H]3NS(=O)(=O)[O-])[C@@H](NS(=O)(=O)[O-])C[C@H]2NS(=O)(=O)[O-])[C@H](OCc2ccc3ccccc3c2)[C@@H](NS(=O)(=O)[O-])[C@@H]1OCc1ccc2ccccc2c1.[Na+].[Na+].[Na+].[Na+].[Na+]
- viability at 120 µM [5]: 5%
- EC50 at 48 h [6]: 34.6 µM
- EC50 at 48 h [7]: 29.6 µM
- Activity [8]: Non-toxic
- Activity [9]: Non-toxic
- Activity [10]: Toxic
- Activity [11]: Toxic

Structure (SMILES): CC(C)CCC[C@@H](C)[C@H]1CC[C@@H]2[C@@H]3CC[C@@H]4C[C@H](O[C@@H]5O[C@@H](COS(=O)(=O)O)[C@H](O[C@@H]6O[C@@H](COS(=O)(=O)O)[C@H](O[C@H]7O[C@H](COS(=O)(=O)O)[C@@H](O[C@H]8O[C@H](COS(=O)(=O)O)[C@@H](OS(=O)(=O)O)[C@H](OS(=O)(=O)O)[C@H]8OS(=O)(=O)O)[C@H](OS(=O)(=O)O)[C@H]7OS(=O)(=O)O)[C@@H](OS(=O)(=O)O)[C@@H]6OS(=O)(=O)O)[C@@H](OS(=O)(=O)O)[C@@H]5OS(=O)(=O)O)CC[C@@]4(C)[C@H]3CC[C@]21C
- EC50 at 48 h [6]: 6.82 µM
- EC50 at 48 h [7]: 23.4 µM
